Legend:
[1] = system: Smad2/Smad3 phosphorylation; test: Phospho-Smad2/3 Inhibition Assay (western blot), Panc-1; type: cell-based, human; conditions: at 10 μM, Panc-1 pancreatic cancer cell line; starred symbols = activation
Procedure, shortened: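 Western blotting of lysates (15-50 μg protein) read phosphorylation of Smad2 Ser465/467 and Smad3 Ser423/425. Before lysis, Panc-1 cells got 1 h of 10 ng/ml TGF-b1 following 3 h compound exposure at 37° C (10 μM final, or serial dilutions for IC50, 0.3% DMSO) after overnight 0.5% FBS starvation.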

KRas G12C mutant = test: Ras GTP Binding Domain Inhibition Assay (Ras Superfamily Assay); conditions: 20 μM compound; for KRas G12C mutant + SOS: % inh.: with SOS; for KRas G12C mutant: % inh.: without SOS
Procedure, shortened: (§1)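 Binding of 100 nM fluorescent GTP (Cy3 or Cy5, 45 min, room temperature) was read after washes from plate-captured His-tagged protein. Beforehand, compounds at 20 μM or in dilution series for IC50 sat 3 h on the protein in Tris buffer pH 7.4 or 7.0 with 1% DMSO, Sos GEF optionally added for the last hour.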

KRas G12D mutant = test: as above; conditions: 20 μM compound; for KRas G12D mutant + SOS: % inh.: with SOS; for KRas G12D mutant: % inh.: without SOS
Procedure, shortened: as §1

KRas Q61H mutant = test: as above; conditions: 20 μM compound; for KRas Q61H mutant + SOS: % inh.: with SOS; for KRas Q61H mutant: % inh.: without SOS
Procedure, shortened: as §1

KRas wild type = test: as above; conditions: 20 μM compound; for KRas wild type + SOS: % inh.: with SOS; for KRas wild type: % inh.: without SOS
Procedure, shortened: as §1

Rac-1 = target: T1, Rac-1 (Homo sapiens, UniProt P63000); test: as above; conditions: read-out: Rac-1: % inh.
T1 construct: made in house
Procedure, shortened: as §1

Rho-A = target: T2, Rho-A (Homo sapiens, UniProt P61586); test: as above; conditions: read-out: Rho-A: % inh..
T2 construct: made in house
T2 sequence (P61586 whole entry): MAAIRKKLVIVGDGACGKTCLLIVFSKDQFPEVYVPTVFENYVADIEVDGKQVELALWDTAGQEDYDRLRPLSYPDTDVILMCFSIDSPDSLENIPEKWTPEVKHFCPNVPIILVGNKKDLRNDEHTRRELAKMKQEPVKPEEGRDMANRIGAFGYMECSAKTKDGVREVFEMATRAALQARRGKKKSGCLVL
Procedure, shortened: as §1

Compound | % inh of Smad2/3 phosphorylation in Panc-1 [1] | KRas G12C mutant + SOS: % inh. (KRas G12C mutant) | KRas G12C mutant: % inh. (KRas G12C mutant) | KRas G12D mutant + SOS: % inh. (KRas G12D mutant) | KRas G12D mutant: % inh. (KRas G12D mutant) | KRas Q61H mutant + SOS: % inh. (KRas Q61H mutant) | KRas Q61H mutant: % inh. (KRas Q61H mutant) | KRas wild type + SOS: % inh. (KRas wild type) | KRas wild type: % inh. (KRas wild type) | inhibition at 20 µM (Rac-1) | inhibition at 20 µM (Rho-A)
COCCCNc1nc(-c2nccn2C)nn2cc(-c3cccc(OC)c3Cl)c(-c3ccccc3)c12 [Compound 30, 6-(2-Chloro-3-methoxyphenyl)-N-(3-methoxypropyl)-2-(1-methyl-1H-imidazol-2-yl)-5-phenylpyrrolo[2,1-f][1,2,4]triazin-4-amine] | D (D = 76-100% inhibition) | 0 (0 = 0% inhibition) | A (A = 1-25% inhibition) | A (A = 1-25% inhibition) | 0 (0 = 0% inhibition) | 0 (0 = 0% inhibition) | 0 (0 = 0% inhibition) | 0 (0 = 0% inhibition) | A (A = 1-25% inhibition) | 0% | 1 to 25%
Cc1c(-c2ccn(C(C)C)n2)cn2nc(-c3nccn3C)nc(Nc3ccn(C(C)C)n3)c12 [Compound 72, N,6-bis(1-Isopropyl-1H-pyrazol-3-yl)-5-methyl-2-(1-methyl-1H-imidazol-2-yl)pyrrolo[2,1-f][1,2,4]triazin-4-amine] | 0 (0 = 0% inhibition) | C (C = 50-75% inhibition) | C (C = 50-75% inhibition) | D (D = 76-100% inhibition) | D (D = 76-100% inhibition) | D (D = 76-100% inhibition) | C (C = 50-75% inhibition) | C (C = 50-75% inhibition) | C (C = 50-75% inhibition) | 76 to 100% | 76 to 100%
COc1cc(Nc2nc(-c3nccn3C)nn3cc(-c4cccnc4)c(C)c23)ncn1 [Compound 48, N-(6-Methoxypyrimidin-4-yl)-5-methyl-2-(1-methyl-1H-imidazol-2-yl)-6-(pyridin-3-yl)pyrrolo[2,1-f][1,2,4]triazin-4-amine] | B (B = 26-45% inhibition) | A (A = 1-25% inhibition) | C (C = 50-75% inhibition) | C (C = 50-75% inhibition) | C (C = 50-75% inhibition) | D (D = 76-100% inhibition) | D (D = 76-100% inhibition) | B (B = 26-49% inhibition) | C (C = 50-75% inhibition) | 50 to 75% | 76 to 100%
COc1cc(Nc2nc(-c3nccn3C)nn3cc(-c4ccn(C)n4)c(C)c23)ncn1 [Compound 63, N-(6-Methoxypyrimidin-4-yl)-5-methyl-2-(1-methyl-1H-imidazol-2-yl)-6-(1-methyl-1H-pyrazol-3-yl)pyrrolo[2,1-f][1,2,4]triazin-4-amine] | D* (D* = 76-100% activation) | C (C = 50-75% inhibition) | D (D = 76-100% inhibition) | D (D = 76-100% inhibition) | D (D = 76-100% inhibition) | D (D = 76-100% inhibition) | D (D = 76-100% inhibition) | D (D = 76-100% inhibition) | D (D = 76-100% inhibition) | 76 to 100% | 76 to 100%
Cc1c(-c2ccn(C(C)C)n2)cn2nc(-c3nccn3C)nc(Nc3nnc(C4CC4)o3)c12 [Compound 67, 5-Cyclopropyl-N-(6-(1-isopropyl-1H-pyrazol-3-yl)-5-methyl-2-(1-methyl-1H-imidazol-2-yl)pyrrolo[2,1-f][1,2,4]triazin-4-yl)-1,3,4-oxadiazol-2-amine] | 0 (0 = 0% inhibition) | B (B = 26-49% inhibition) | C (C = 50-75% inhibition) | C (C = 50-75% inhibition) | C (C = 50-75% inhibition) | C (C = 50-75% inhibition) | C (C = 50-75% inhibition) | C (C = 50-75% inhibition) | C (C = 50-75% inhibition) | 50 to 75% | 76 to 100%
Cc1c(-c2ccn(C(C)C)n2)cn2nc(-c3nccn3C)nc(Nc3ncco3)c12 [Compound 60, N-(6-(1-Isopropyl-1H-pyrazol-3-yl)-5-methyl-2-(1-methyl-1H-imidazol-2-yl)pyrrolo[2,1-f][1,2,4]triazin-4-yl)oxazol-2-amine] | C (C = 46-75% inhibition) | 0 (0 = 0% inhibition) | A (A = 1-25% inhibition) | A (A = 1-25% inhibition) | A (A = 1-25% inhibition) | C (C = 50-75% inhibition) | B (B = 26-49% inhibition) | A (A = 1-25% inhibition) | A (A = 1-25% inhibition) | 1 to 25% | 1 to 25%
COC[C@@H]1CC[C@@H]1CNc1nc(-c2ccccn2)nn2cc(-c3ccn(C(C)C)n3)c(-c3ccccc3)c12 (racemic) [Compound 26, rac 6-(1-Isopropyl-1H-pyrazol-3-yl)-N-(((1S,2R)-2-(methoxymethyl)cyclobutyl)methyl)-5-phenyl-2-(pyridin-2-yl)pyrrolo[2,1-f][1,2,4]triazin-4-amine] | C (C = 46-75% inhibition) | A (A = 1-25% inhibition) | 0 (0 = 0% inhibition) | A (A = 1-25% inhibition) | 0 (0 = 0% inhibition) | A (A = 1-25% inhibition) | A (A = 1-25% inhibition) | 0 (0 = 0% inhibition) | A (A = 1-25% inhibition) | 0% | 1 to 25%
COc1cccc(Nc2nc(-c3nccn3C)nn3ccc(C)c23)n1 [Compound 38, N-(6-Methoxypyridin-2-yl)-5-methyl-2-(1-methyl-1H-imidazol-2-yl)pyrrolo[2,1-f][1,2,4]triazin-4-amine] | 0 (0 = 0% inhibition) | 0 (0 = 0% inhibition) | 0 (0 = 0% inhibition) | 0 (0 = 0% inhibition) | 0 (0 = 0% inhibition) | 0 (0 = 0% inhibition) | 0 (0 = 0% inhibition) | 0 (0 = 0% inhibition) | 0 (0 = 0% inhibition) | 0% | 1 to 25%
COc1ccc(Nc2nc(-c3nccn3C)nn3cc(-c4ccn(C(C)C)n4)c(C)c23)cn1 [Compound 71, 6-(1-Isopropyl-1H-pyrazol-3-yl)-N-(6-methoxypyridin-3-yl)-5-methyl-2-(1-methyl-1H-imidazol-2-yl)pyrrolo[2,1-f][1,2,4]triazin-4-amine] | 0 (0 = 0% inhibition) | A (A = 1-25% inhibition) | 0 (0 = 0% inhibition) | A (A = 1-25% inhibition) | A (A = 1-25% inhibition) | 0 (0 = 0% inhibition) | 0 (0 = 0% inhibition) | A (A = 1-25% inhibition) | 0 (0 = 0% inhibition) | 1 to 25% | 1 to 25%
COc1cncnc1Nc1nc(-c2nccn2C)nn2cc(-c3ccn(C(C)C)n3)c(C)c12 [Compound 73, 6-(1-Isopropyl-1H-pyrazol-3-yl)-N-(5-methoxypyrimidin-4-yl)-5-methyl-2-(1-methyl-1H-imidazol-2-yl)pyrrolo[2,1-f][1,2,4]triazin-4-amine] | B* (B* = 26-45% activation) | B (B = 26-49% inhibition) | B (B = 26-49% inhibition) | B (B = 26-49% inhibition) | C (C = 50-75% inhibition) | C (C = 50-75% inhibition) | C (C = 50-75% inhibition) | B (B = 26-49% inhibition) | C (C = 50-75% inhibition) | 50 to 75% | 76 to 100%

— patent publication US12459951B2, “Compounds that interact with RAS superfamily proteins for treatment of cancers, inflammatory diseases, rasopathies, and fibrotic disease” (SHY Therapeutics, LLC, priority 2022, dated 2025)
